{"source": "patent US20140275282A1", "about": "“Treating osteopenia and related disorders with geranylgeranyl acetone and derivatives thereof” (COYOTE PHARMACEUTICALS, INC., priority 2013, published 2014)", "tested_on": "osteoclast-mediated bone resorption", "assay": "Inhibition of osteoclast function in vivo by monitoring bone resorption in young growing mice", "details": "young growing mice aged 3-4 weeks, subcutaneous bid for 14 days (5 mg/kg/day)", "protocol": "GGA and derivatives can be tested for their ability to modulate osteoclast function by administering to animals and monitoring bone resorption. One model is to determine the effects on bone resorption of young growing mice as previously described (Schenk et al., Calcif. Tissues Int 38:342-349, 1986; Simonet et al., Cell 89, 308-319, 1997). Young growing mice aged 3-4 weeks, weight range 9.2-15.7 g are divided into groups of ten mice per group. These mice are injected subcutaneously with saline or test compounds bid for 14 days (5 mg/kg/day). The mice are then radiographed before treatment, at day 7 and on day 14. The mice were sacrificed 24 hours after the final injection. The right femur is then removed, fixed in zinc formalin, decalcified in formic acid and embedded in paraffin. Sections are cut through the mid region of the distal femoral metaphysis and the femoral shaft. Bone density, by histomorphometry, is determined in six adjacent regions extending from the metaphyseal limit of the growth plate, through the primary and secondary spongiosa and into the femoral diaphysis (shaft). […] This is a region where bone is rapidly removed by osteoclast-mediated bone resorption in mice. In these rapidly growing young mice, the increase in bone in this region observed with treatment is consistent with an inhibition of bone resorption.", "data": [{"smiles": "CC(=O)CCC=C(C)CCC=C(C)CCC=C(C)CCC=C(C)C", "note": "[GGA, Geranylgeranyl acetone]", "values": [{"measurement": "Radiographic changes: zone of bone density in the spongiosa associated with the growth plates, relative to controls", "setting": "after seven days of treatment", "result": "increased bone density"}, {"measurement": "Histological changes: bone density (histomorphometry) in distal femoral metaphysis, regions 1.1 to 2.65 mm from the growth plate", "setting": "right femur removed 24 hours after final injection", "result": "increased bone density"}]}]}
